# Measurements from publication PMC5708526, “Targeting secondary protein complexes in drug discovery: studying the druggability and chemical biology of the HSP70/BAG1 complex” (Chemical Communications (Cambridge, England), 2017).
# Columns and labels:
# [1] = biological target: T1, TR-HSP72 (aa 3-382) (Homo sapiens, UniProt P0DMV8); assay: Fluorescence polarisation probe KD determination with truncated HSP72; type: binding
# T1 construct: Truncated HSP72-NBD (residues 3 to 382); made in house
# Description: To determine the binding affinity of bisaryl FP-probe 11 for HSP72, increasing concentrations of the protein were titrated against a fixed concentration (10 nM) of the FP-probe. […] We speculated that this decrease in apparent KD was due to the slow hydrolysis of the ATP-probe to ADP-ATTO-488 + Pi. Although HSP72 has low intrinsic ATPase activity,[8] the high enzyme concentration could catalyse hydrolysis over the time-frame of the assay, with the initial KD values reflective of the known modest affinity of ATP for HSP70, whilst the final KD value was consistent with the higher affinity ADP ligand.[14] […]
# (§1) TRIS Tris(hydroxymethyl)aminomethane
# (§2) General Information: Unless otherwise stated the aqueous assay buffer contained 50 mM TRIS base pH 7.4, 150 mM NaCl, 6 mM MgCl2, 1 mM DTT, 0.1% (wt/wt) CHAPS. The assay was conducted using 384 Plus F ProxiPlates (PerkinElmer) with a final assay volume of 10 μL. Plates were centrifuged at 1000 rpm for 1 minute prior to incubation and read using an 2103 Envision Multilable Plate Reader. Excitation and emission wavelengths used for green probes were 480 nm and 535 nm, respectively.
# Fluorescence polarisation was measured in units of millipolarization (mP). […] Data were plotted and analysed using GraphPad Prism 6, graphical data represents the mean ± standard error of the mean for a single representative experiment. […]
# [2] = biological target: T2, BAG1 (Homo sapiens, UniProt Q99933); assay: FP of probes with BAG1 in the absence of HSP72; type: binding; conditions: 10 nM probe, 1 µM BAG1
# T2 construct: purchased Enzo Life Sciences
# T2 sequence (Q99933 1-274 isoform Q99933-3): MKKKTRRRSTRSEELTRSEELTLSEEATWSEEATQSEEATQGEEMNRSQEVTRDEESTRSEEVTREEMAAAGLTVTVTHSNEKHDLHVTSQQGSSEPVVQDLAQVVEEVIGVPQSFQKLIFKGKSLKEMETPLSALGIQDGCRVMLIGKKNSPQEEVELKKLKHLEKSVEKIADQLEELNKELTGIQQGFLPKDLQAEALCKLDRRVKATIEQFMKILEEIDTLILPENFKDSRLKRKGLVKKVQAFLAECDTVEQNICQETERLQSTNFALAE
# Description: To assess what effect the secondary HSP72/BAG1 complex had on the apparent affinity of the non-nucleotide bisaryl-ATTO-488 FP-probe 11, we carried out a similar BAG1 study. […] To confirm that the binding of BAG1 to HSP72 was not mutually exclusive, we screened the nucleotides ADP and ATP in a competition assay with bisaryl-ATTO-488 11 and HSP72 at a 50% bound fraction, with and without a saturating concentration of BAG1 (700 nM) (Fig. S7, ESI ^†).
# Fig. S4. Competitive displacement curve for bisarryl-ATTO-448 and HSP72 with compound 2. IC50 determination was performed using non-linear least squares curve fitting (GraphPad Prism 6, log(inhibitor) vs. response—variable slope (four parameters)), all data points were tested in triplicate and are represented as the arithmetic mean ± SEM. pKD=-log KD (M). pKD values are quoted as the geometric mean±SEM of n independent repeats.
# Fig. S5. Bisaryl-ATTO-488 and ATP-ATTO-488 binding to truncated HSP72 and HSC70. Representative binding isotherms for bisaryl-ATTO-488 (blue) and ATP-ATTO-488 (red) binding to TR-HSP72 (aa 3-382) (•) and TR-HSC70 (aa 4-381) (x). KD determination was performed using non-linear regression analysis (one site–specific binding model), all data points were tested in triplicate and are represented as the arithmetic mean ± SEM. pKD=-log KD (M). pKD values are quoted as the geometric mean±SEM of n independent repeats.
# Fig. S6. […]
# [3] = biological target: T3, HSP72 (Homo sapiens, UniProt P0DMV8); assay: FP assay binding window and Z' determination
# T3 construct: made in house
# T3 sequence (P0DMV8 whole entry): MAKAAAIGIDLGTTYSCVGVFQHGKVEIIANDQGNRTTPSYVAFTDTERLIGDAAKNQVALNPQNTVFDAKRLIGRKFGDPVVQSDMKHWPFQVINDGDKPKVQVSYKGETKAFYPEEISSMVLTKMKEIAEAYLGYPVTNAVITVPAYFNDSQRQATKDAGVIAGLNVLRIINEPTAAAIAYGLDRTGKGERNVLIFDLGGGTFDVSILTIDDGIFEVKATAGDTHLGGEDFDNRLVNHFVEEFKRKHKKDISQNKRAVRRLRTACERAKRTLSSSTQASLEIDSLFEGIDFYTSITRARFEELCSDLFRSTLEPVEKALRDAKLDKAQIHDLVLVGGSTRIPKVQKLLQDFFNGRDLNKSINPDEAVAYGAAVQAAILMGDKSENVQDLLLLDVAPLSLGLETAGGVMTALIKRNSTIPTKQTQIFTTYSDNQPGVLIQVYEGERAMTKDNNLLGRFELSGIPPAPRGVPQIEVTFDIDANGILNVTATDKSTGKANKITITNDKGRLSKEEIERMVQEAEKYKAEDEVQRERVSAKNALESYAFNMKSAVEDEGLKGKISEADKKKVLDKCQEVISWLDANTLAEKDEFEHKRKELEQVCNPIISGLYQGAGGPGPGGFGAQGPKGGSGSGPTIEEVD
# From the text: As a result, the assay was not statistically robust, so could not be used in competition experiments (Z′ = 0.36).[11],[20],[21] We hypothesised that the high lipophilicity of 10 (clog P = 6.9) was causing the small binding window, either due to aggregation, even at very low concentrations, or its large hydrate volume.[22] Because the lipophilicity of the specific-ligand portion of the probe was fixed by the need for high affinity to the HSP70 target, we focused on changes to the solvent exposed fluorophore. ATTO-488, a green-shifted fluorophore that contains two sulfonic acid groups, was selected as an alternative to fluorescein (see ESI ^†), as this reduced the clog P of the bisaryl probe 11 to –3.9.[21] The binding window of ATTO-488 bisaryl FP-probe 11 measured at a fixed and apparently saturating concentration of HSP72 (5 μM), was now greater than 150 mP (Z′ = 0.63, Fig. 3A and Fig. S1, ESI ^†). […]
# as §1, §2
# Fluorescence polarisation was measured in units of millipolarization (mP). All experiments were performed in triplicate, unless otherwise stated. Data were plotted and analysed using GraphPad Prism 6, graphical data represents the mean ± standard error of the mean for a single representative experiment. ATP-derived fluorescent probes (1.0 mM in aqueous) were purchased from Jena Bioscience. Human BAG-1M (10.9 μM in 20 mM TRIS base pH 7.4, 100 mM NaCl, 1 mM DTT, 1% (v/v) glycerol) was purchased from Enzo Life Sciences.
# Determination of optimal probe concentration: To each well, 5 μL of HSP72 (10 µM in assay buffer) or 5 μL assay buffer and increasing concentrations of probe (5 μL, two-fold dilution series) were added. Fluorescence polarisation values for the tracer ± protein were plotted using GraphPad prism 6. […]
# Z’ determination: To each well, 5 µL of probe (20 nM in assay buffer) and either 5 µL of HSP70 (in assay buffer) or 5 µL of assay buffer were added. Fluorescent polarisation values from 96 wells were used to calculate the mean and standard deviation for each data set. Z’-factors were calculated using the equation given below (sample refers to probe in the absence of protein and control refers to probe in the presence of protein). […]
# T1 sequence (P0DMV8 3-382): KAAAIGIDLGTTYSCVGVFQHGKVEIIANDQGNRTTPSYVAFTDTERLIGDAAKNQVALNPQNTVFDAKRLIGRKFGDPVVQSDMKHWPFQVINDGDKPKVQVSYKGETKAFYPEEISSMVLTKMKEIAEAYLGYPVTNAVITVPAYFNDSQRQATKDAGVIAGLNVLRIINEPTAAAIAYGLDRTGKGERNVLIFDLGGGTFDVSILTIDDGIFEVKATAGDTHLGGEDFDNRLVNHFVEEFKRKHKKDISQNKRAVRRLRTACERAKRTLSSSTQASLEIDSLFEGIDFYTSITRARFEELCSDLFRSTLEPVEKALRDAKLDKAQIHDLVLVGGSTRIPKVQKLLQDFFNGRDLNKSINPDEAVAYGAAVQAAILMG
compound,measurement,setting,value
CN(CCCC(=O)NCCCCCCNc1ncnc2c1nc(NCc1ccc3ncccc3c1)n2[C@@H]1O[C@H](COCc2ccc(C(F)(F)F)cc2)[C@@H](O)[C@H]1O)C(=O)c1ccccc1-c1c2ccc(=N)c(S(=O)(=O)O)c-2oc2c(S(=O)(=O)O)c(N)ccc12 [compound 11],Kd,[1],50 nM
same,pKD,[1],7.32
same,interaction with BAG1 in the absence of HSP72,[2],No interaction
same,interaction with BAG1 in the absence of HSP72,[2]; listed as bisaryl-ATTO-488,does not interact
same,Z',[3]; FP assay with HSP72,0.63
same,assay (binding) window,[3]; presence vs absence of 5 μM HSP72,greater than 150 mP
